Measurements as given in EPA's ToxRefDB 2.

Key:
rat [1] = conditions: Carcinogenicity, fischer, Oral, Gavage/Intubation, dose end: 24 month, group: systemic
rat [2] = conditions: Prenatal developmental toxicity study, fischer, Dermal, Topical, dose end: 15 GD, group: maternal
mouse [3] = conditions: Carcinogenicity, b6c3f1, Oral, Gavage/Intubation, dose end: 18 month, group: systemic
rabbit [4] = conditions: Prenatal developmental toxicity study, new zealand white, Oral, Gavage/Intubation, dose end: 19 GD
rat [5] = conditions: Subchronic oral toxicity in rodents, sprague dawley, Feed, dose end: 13 week, group: systemic
rat [6] = conditions: Prenatal developmental toxicity study, other, Oral, Gavage/Intubation, dose end: 15 GD
rat [7] = conditions: Multigenerational reproductive toxicity study, sprague dawley, Oral, Feed, dose end: 2 generation
dog [8] = conditions: Chronic toxicity, beagle, Oral, Feed, dose end: 15 month, group: systemic
rat [9] = conditions: Combined chronic toxicity/carcinogenicity, wistar, Oral, Feed, dose end: 2 year, group: systemic
rat [10] = conditions: Combined chronic toxicity/carcinogenicity, other, Oral, Feed, dose end: 2 year, group: systemic
rat [11] = conditions: Subchronic oral toxicity in rodents, wistar, Feed, dose end: 13 week, group: systemic, systemic / clinical chemistry / [other] / [other] + systemic / clinical chemistry / alkaline phosphatase (alp/alk) / alkaline phosphatase (…
mouse [12] = conditions: Subchronic oral toxicity in rodents, other, Feed, dose end: 13 week, group: systemic
mouse [13] = conditions: Carcinogenicity; other; Oral; Feed; dose end: 24 month; group: systemic; systemic / clinical chemistry / alkaline phosphatase (alp/alk) / alkaline phosphatase (alp/alk) + systemic / organ weight / heart / nos + …
rat [14] = conditions: Subchronic oral toxicity in rodents, other, Feed, dose end: 3 month, group: systemic
dog [15] = conditions: Subchronic oral toxicity in nonrodent, beagle, Capsule, dose end: 91 day, group: systemic
mouse [16] = conditions: Carcinogenicity, other, Oral, Feed, dose end: 18 month, group: systemic
rat [17] = conditions: Combined chronic toxicity/carcinogenicity, other, Oral, Feed, dose end: 2 year, group: systemic; remark: listed apart in the source
rat [18] = conditions: Multigenerational reproductive toxicity study, other, Oral, Feed, dose end: 2 generation
rabbit [19] = conditions: Prenatal developmental toxicity study, other, Oral, Gavage/Intubation, dose end: 19 GD
dog [20] = conditions: Chronic toxicity; beagle; Oral; Capsule; dose end: 12 month; group: systemic; systemic / in life observation / clinical signs / fur (altered appearance) + systemic / in life observation / clinical signs / skin …
[21] = systemic / in life observation / body weight / body weight gain + systemic / in life observation / clinical signs / labored respiration + …
[22] = systemic / organ weight / stomach / relative to body weight + systemic / in life observation / body weight / body weight gain
[23] = systemic / in life observation / clinical signs / scabbing
[24] = systemic / organ weight / testes / relative to body weight
[25] = systemic / organ weight / testes / relative to body weight + systemic / pathology microscopic / liver / carcinoma + systemic / hematology / …
[26] = group: developmental, developmental / developmental malformation / general / [other] + developmental / developmental malformation / bone / arthrogryposis + …
[27] = group: maternal, systemic / in life observation / body weight / body weight + systemic / in life observation / food consumption / food efficiency + systemic…
[28] = systemic / clinical chemistry / alanine aminotransferase (alt/sgpt) / alanine aminotransferase (alt/sgpt) + systemic / clinical chemistry / …
[29] = systemic / urinalysis / appearance and color / appearance and color + systemic / organ weight / liver / relative to body weight
[30] = group: developmental, developmental / developmental malformation / bone / incomplete ossification + developmental / developmental malformation / bone / unossified
[31] = group: maternal, reproductive / reproductive performance / aborted / aborted + systemic / in life observation / body weight / body weight + systemic / in …
[32] = group: offspring, developmental / developmental landmark / eye opening / eye opening + developmental / developmental landmark / incisor eruption / incisor …
[33] = group: offspring, systemic / organ weight / adrenal gland / absolute
[34] = group: parental, systemic / organ weight / uterus / absolute
[35] = systemic / pathology gross / liver / accentuated lobular pattern + systemic / pathology microscopic / liver / fatty change
[36] = systemic / pathology gross / liver / accentuated lobular pattern + systemic / pathology microscopic / liver / fatty change + systemic / …
[37] = systemic / clinical chemistry / albumin / albumin + systemic / clinical chemistry / alkaline phosphatase (alp/alk) / alkaline phosphatase (…
[38] = systemic / pathology microscopic / lung / cholesterol cleft(s) + systemic / pathology microscopic / lung / foam cell aggregation
[39] = systemic / pathology microscopic / lung / cholesterol cleft(s) + systemic / pathology microscopic / lung / foam cell aggregation + systemic…
[40] = systemic / pathology microscopic / liver / necrosis
[41] = systemic / pathology microscopic / liver / necrosis + systemic / clinical chemistry / [other] / [other] + systemic / pathology microscopic…
[42] = systemic / in life observation / body weight / body weight + systemic / pathology microscopic / liver / hypertrophy + systemic / pathology …
[43] = systemic / in life observation / clinical signs / vomitting + systemic / organ weight / liver / relative to body weight + systemic / …
[44] = systemic / in life observation / body weight / body weight + systemic / in life observation / body weight / body weight gain
[45] = systemic / in life observation / body weight / body weight + systemic / in life observation / body weight / body weight gain + systemic / …
[46] = systemic / in life observation / body weight / body weight + systemic / in life observation / body weight / body weight gain + systemic / in…
[47] = group: offspring, systemic / in life observation / body weight / offspring (pup) weight
[48] = group: offspring, systemic / in life observation / body weight / offspring (pup) weight + developmental / developmental landmark / eye opening / eye opening
[49] = group: parental, systemic / pathology microscopic / kidney / pigmentation + systemic / pathology microscopic / spleen / erythrophagocytosis
[50] = group: parental, systemic / pathology microscopic / kidney / pigmentation + systemic / pathology microscopic / spleen / erythrophagocytosis + systemic / in …
[51] = group: developmental, developmental / developmental malformation / bone / fused
[52] = group: maternal, systemic / in life observation / body weight / body weight gain + systemic / in life observation / food consumption / food consumption + …

CCCCC(CC)CO (configuration not stated) [2-Ethyl-1-hexanol]
LOAEL (rat [1]; [21]): > 500 mg/kg/day | NOAEL (rat [1]; [21]): ≥ 500 mg/kg/day | LEL (rat [1]; [22]): 50 mg/kg/day | NEL (rat [1]; [22]): < 50 mg/kg/day | LOAEL (rat [2]; systemic / in life observation / clinical signs / erythema + systemic / in life observation / clinical signs / scabbing + systemic / …): 840 mg/kg/day | LEL (rat [2]; [23]): 252 mg/kg/day | NEL (rat [2]; [23]): < 252 mg/kg/day | LEL (mouse [3]; [24]): 50 mg/kg/day | NEL (mouse [3]; [24]): < 50 mg/kg/day | LOAEL (mouse [3]; [25]): > 750 mg/kg/day | NOAEL (mouse [3]; [25]): ≥ 750 mg/kg/day

CCC(C)Nc1c([N+](=O)[O-])cc(C(C)(C)C)cc1[N+](=O)[O-] (configuration not stated) [Butralin]
LOAEL (rabbit [4]; group: developmental, developmental / developmental malformation / general / [other]): 45 mg/kg/day | LEL (rabbit [4]; [26]): 45 mg/kg/day | NEL (rabbit [4]; [26]): 15 mg/kg/day | NOAEL (rabbit [4]; [26]): 15 mg/kg/day | LOAEL (rabbit [4]; group: maternal, systemic / in life observation / body weight / body weight + systemic / in life observation / food consumption / food efficiency): 135 mg/kg/day | LEL (rabbit [4]; [27]): 135 mg/kg/day | NEL (rabbit [4]; [27]): 45 mg/kg/day | NOAEL (rabbit [4]; [27]): 45 mg/kg/day | LOAEL (rat [5]; [28]): 50 mg/kg/day | NOAEL (rat [5]; [28]): 10 mg/kg/day | LEL (rat [5]; [29]): 10 mg/kg/day | NEL (rat [5]; [29]): < 10 mg/kg/day | LEL (rat [6]; [30]): 500 mg/kg/day | LOAEL (rat [6]; [30]): 500 mg/kg/day | NEL (rat [6]; [30]): < 500 mg/kg/day | NOAEL (rat [6]; [30]): < 500 mg/kg/day | LEL (rat [6]; [31]): 1250 mg/kg/day | LOAEL (rat [6]; [31]): 1250 mg/kg/day | NEL (rat [6]; [31]): 500 mg/kg/day | NOAEL (rat [6]; [31]): 500 mg/kg/day

COC(=O)C(C)Oc1ccc(Oc2ccc(Cl)cc2Cl)cc1 (configuration not stated) [Diclofop-methyl]
LOAEL (rat [7]; [32]): 7.3 mg/kg/day | NOAEL (rat [7]; [32]): 2.1 mg/kg/day | LEL (rat [7]; [33]): 0.9 mg/kg/day | NEL (rat [7]; [33]): < 0.9 mg/kg/day | LOAEL (rat [7]; group: parental, systemic / organ weight / liver / absolute + systemic / organ weight / liver / relative to body weight): 2.1 mg/kg/day | NOAEL (rat [7]; group: parental, systemic / organ weight / liver / absolute + systemic / organ weight / liver / relative to body weight + systemic / organ weight / kidney / …): 0.7 mg/kg/day | LEL (rat [7]; [34]): 0.9 mg/kg/day | NEL (rat [7]; [34]): < 0.9 mg/kg/day | LEL (dog [8]; [35]): 0.625 mg/kg/day | LOAEL (dog [8]; [35]): 0.625 mg/kg/day | NEL (dog [8]; [36]): 0.2 mg/kg/day | NOAEL (dog [8]; [36]): 0.2 mg/kg/day | LEL (rat [9]; [37]): 2.3 mg/kg/day | LOAEL (rat [9]; [37]): 2.3 mg/kg/day | NOAEL (rat [9]; [37]): 0.23 mg/kg/day | NEL (rat [9]; systemic / hematology / hemoglobin (hgb) / hemoglobin (hgb) + systemic / hematology / erythrocyte (rbc) count differential / erythrocyte (…): 0.23 mg/kg/day | LEL (rat [10]; [38]): 0.32 mg/kg/day | LOAEL (rat [10]; [38]): 0.32 mg/kg/day | NEL (rat [10]; [39]): 0.1 mg/kg/day | NOAEL (rat [10]; [39]): 0.1 mg/kg/day | LEL (rat [11]): 6.32 mg/kg/day | LOAEL (rat [11]): 6.32 mg/kg/day | NOAEL (rat [11]): 1.56 mg/kg/day | LEL (mouse [12]; [40]): 0.3 mg/kg/day | NEL (mouse [12]; [40]): < 0.3 mg/kg/day | LOAEL (mouse [12]; [41]): 1 mg/kg/day | NOAEL (mouse [12]; [41]): 0.3 mg/kg/day | LEL (mouse [13]): 0.76 mg/kg/day | LOAEL (mouse [13]): 0.76 mg/kg/day | NEL (mouse [13]): 0.24 mg/kg/day | NOAEL (mouse [13]): 0.24 mg/kg/day

CO/N=C(/C(=O)OC)c1ccccc1CO/N=C(\C)c1cccc(C(F)(F)F)c1 [Trifloxystrobin]
NEL (rat [14]; systemic / clinical chemistry / urea nitrogen / urea + systemic / urinalysis / ph / ph + systemic / clinical chemistry / glucose / glucose…): 618 mg/kg/day | LOAEL (rat [14]; [42]): 127 mg/kg/day | NOAEL (rat [14]; [42]): 30.6 mg/kg/day | LEL (dog [15]; systemic / clinical chemistry / bilirubin / total bilirubin): 30 mg/kg/day | LOAEL (dog [15]; [43]): 150 mg/kg/day | NEL (dog [15]; [43]): 5 mg/kg/day | NOAEL (dog [15]; [43]): 30 mg/kg/day | LEL (mouse [16]; [44]): 35.7 mg/kg/day | LOAEL (mouse [16]; [44]): 35.7 mg/kg/day | NEL (mouse [16]; [45]): 3.51 mg/kg/day | NOAEL (mouse [16]; [45]): 3.51 mg/kg/day | LEL (rat [17]; [44]): 29.7 mg/kg/day | LOAEL (rat [17]; [44]): 29.7 mg/kg/day | NEL (rat [17]; [46]): 9.81 mg/kg/day | NOAEL (rat [17]; [46]): 9.81 mg/kg/day | LEL (rat [18]; [47]): 65.5 mg/kg/day | LOAEL (rat [18]; [47]): 65.5 mg/kg/day | NEL (rat [18]; [48]): 4.2 mg/kg/day | NOAEL (rat [18]; [48]): 4.2 mg/kg/day | LEL (rat [18]; [49]): 55.3 mg/kg/day | LOAEL (rat [18]; [49]): 55.3 mg/kg/day | NEL (rat [18]; [50]): 3.8 mg/kg/day | NOAEL (rat [18]; [50]): 3.8 mg/kg/day | LEL (rabbit [19]; [51]): 500 mg/kg/day | LOAEL (rabbit [19]; [51]): 500 mg/kg/day | NEL (rabbit [19]; [51]): 250 mg/kg/day | NOAEL (rabbit [19]; [51]): 250 mg/kg/day | LEL (rabbit [19]; [52]): 50 mg/kg/day | LOAEL (rabbit [19]; [52]): 50 mg/kg/day | NEL (rabbit [19]; [52]): 10 mg/kg/day | NOAEL (rabbit [19]; [52]): 10 mg/kg/day | LEL (dog [20]): 50 mg/kg/day | LOAEL (dog [20]): 50 mg/kg/day | NEL (dog [20]): 5 mg/kg/day | NOAEL (dog [20]): 5 mg/kg/day
